Assay results published in patent US7179941B2, “Carbonylamino-substituted acyl phenyl urea derivatives, process for their preparation and their use” (Sanofi-Aventis Deutschland GmbH, priority 2003, dated 2007).

Key:
[1] = biological target: T1, human glycogen phosphorylase a (Homo sapiens, UniProt P06737); assay: Glycogen phosphorylase a activity test; assay type: biochemical; conditions: 10 μM test substance; GPa measured in reverse direction (glycogen synthesis from glucose 1-phosphate)
T1 sequence (P06737 1-847): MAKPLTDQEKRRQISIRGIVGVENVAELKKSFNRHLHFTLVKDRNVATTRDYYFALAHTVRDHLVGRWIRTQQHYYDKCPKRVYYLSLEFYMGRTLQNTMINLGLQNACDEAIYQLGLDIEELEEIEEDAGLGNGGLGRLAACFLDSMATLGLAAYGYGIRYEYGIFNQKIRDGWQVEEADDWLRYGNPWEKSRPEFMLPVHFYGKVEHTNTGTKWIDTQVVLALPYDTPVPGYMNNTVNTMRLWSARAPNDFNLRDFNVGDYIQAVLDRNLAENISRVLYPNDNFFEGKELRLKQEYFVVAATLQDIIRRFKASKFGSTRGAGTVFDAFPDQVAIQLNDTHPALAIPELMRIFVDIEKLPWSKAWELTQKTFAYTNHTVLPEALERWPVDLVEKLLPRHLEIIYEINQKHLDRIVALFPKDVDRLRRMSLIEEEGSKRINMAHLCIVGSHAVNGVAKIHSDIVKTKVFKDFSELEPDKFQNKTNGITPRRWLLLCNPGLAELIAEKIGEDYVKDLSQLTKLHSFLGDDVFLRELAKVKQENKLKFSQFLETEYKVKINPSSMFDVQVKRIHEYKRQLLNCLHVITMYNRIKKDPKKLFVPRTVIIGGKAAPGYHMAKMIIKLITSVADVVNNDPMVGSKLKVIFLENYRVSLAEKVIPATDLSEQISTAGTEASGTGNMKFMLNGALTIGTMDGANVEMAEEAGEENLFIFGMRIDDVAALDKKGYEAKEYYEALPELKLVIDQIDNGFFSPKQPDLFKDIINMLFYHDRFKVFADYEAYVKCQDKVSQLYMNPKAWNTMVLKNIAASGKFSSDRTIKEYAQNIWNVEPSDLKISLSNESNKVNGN
Experimental: Glycogen Phophorylase a Activity Test
The effect of compounds on the activity of the active form of glycogen phosphorylase (GPa) was measured in the reverse direction by monitoring the synthesis of glycogen from glucose 1-phosphate by determining the release of inorganic phosphate. All reactions were carried out as duplicate determinations in 96-well microtiter plates (half area plates, Costar No. 3696), and the change in absorption as a consequence of the formation of the reaction product was measured at the wavelength specified below in a Multiskan Ascent Elisa Reader (Lab Systems, Finland).
In order to measure the GPa enzyme activity in the reverse direction, the conversion of glucose 1-phosphate to glycogen and inorganic phosphate was measured by the general method of Engers et al. (Engers HD, Shechosky S, Madsen NB, Can J Biochem 1970 July;48(7):746–754) with the following modifications: human glycogen phosphorylase a (for example containing 0.76 mg of protein/ml (Aventis Pharma Deutschland GmbH), dissolved in buffer solution E (25 mM P-glycerophosphate, pH 7.0, 1 mM EDTA and 1 mM dithiotreitol) was diluted to a concentration of 10 μg of protein/ml with buffer T (50 mM Hepes, pH 7.0, 100 mM KCl, 2.5 mM EDTA, 2.5 mM MgCl2.6H2O) and addition of 5 mg/ml of glycogen. Test substances were prepared as a 10 mM solution in DMSO and diluted to 50 μM with buffer solution T. To 10 μl of this solution were added 10 μl of 37.5 mM glucose dissolved in buffer solution T and 5 mg/ml of glycogen, and also 10 μl of a solution of human glycogen phosphorylase a (10 μg of protein/ml) and 20 μl of 2.5 mM glucose 1-phosphate. The base value of the activity of glycogen phosphorylase a in the absence of test substance was determined by adding 10 μl of buffer solution T (0.1% DMSO). The mixture was incubated at room temperature for 40 minutes and the released inorganic phosphate was determined by means of the general method of Drueckes et al. (Drueckes P, Schinzel R, Palm D, Anal Biochem 1995 Sep. 1;230(1):173–177) with the following modifications: 50 μl of a stop solution of 7.3 mM of ammonium molybdate, 10.9 mM of zinc acetate, 3.6% of ascorbic acid, 0.9% of SDS are added to 50 μl of the enzyme mixture. After 60 minutes of incubation at 45° C., the absorption was measured at 820 nm. To determine the background absorption, the stop solution was added immediately after the addition of the glucose 1-phosphate solution in a separate reaction.

[2] = biological target: T1, human glycogen phosphorylase a; assay: Glycogen phosphorylase a activity test; assay type: biochemical; conditions: read-out: inhibition at a concentration of 100 μM

Row | % Inhibition at 10 μM [1] | inhibition at 100 µM [2] | Compound
1 | no inhibition | 11% | O=C(O)C(=O)Nc1ccccc1C(=O)O [Comparative Example A, reference compound]
2 | 95% | – | O=C(O)CC(=O)Nc1ccc(Cl)c(NC(=O)NC(=O)c2cc(F)c(F)cc2Cl)c1 [Example 86]
3 | 96% | – | COC(=O)C(=O)Nc1ccc(Cl)c(NC(=O)NC(=O)c2cc(F)c(F)cc2Cl)c1 [Example 87]
4 | 97% | – | O=C(NC(=O)c1cc(F)c(F)cc1Cl)Nc1cc(NC(=O)C(=O)O)ccc1Cl [Example 88]
